How the values were obtained:
[1] = target: Gamma-aminobutyric acid receptor subunit alpha-1/alpha-2/beta-2/gamma-2 (Homo sapiens, UniProt P14867+P18507+P47869+P47870); assay type: protein-complex assay
D(1A) dopamine receptor = D(1A) dopamine receptor (Homo sapiens, UniProt P21728)
[2] = target: T1, Alpha-1A adrenergic receptor (Homo sapiens, UniProt P35348); assay type: functional, cell-based
T1 sequence (P35348 whole entry): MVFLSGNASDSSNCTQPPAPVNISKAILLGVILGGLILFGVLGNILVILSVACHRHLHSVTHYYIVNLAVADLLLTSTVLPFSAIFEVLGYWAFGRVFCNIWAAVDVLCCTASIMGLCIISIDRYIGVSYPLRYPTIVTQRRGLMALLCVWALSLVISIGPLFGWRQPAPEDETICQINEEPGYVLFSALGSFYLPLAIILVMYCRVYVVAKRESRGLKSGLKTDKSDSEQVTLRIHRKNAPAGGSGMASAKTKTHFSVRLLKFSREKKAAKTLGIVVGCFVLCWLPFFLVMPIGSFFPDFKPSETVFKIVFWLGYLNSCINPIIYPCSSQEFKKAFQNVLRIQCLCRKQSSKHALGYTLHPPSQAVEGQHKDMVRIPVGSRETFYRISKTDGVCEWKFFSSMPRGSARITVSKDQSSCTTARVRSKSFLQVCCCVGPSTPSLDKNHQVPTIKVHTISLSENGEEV

Prothrombin = Prothrombin (Homo sapiens, UniProt P00734); assay type: functional
[3] = target: T2, Muscarinic acetylcholine receptor M1 (Homo sapiens, UniProt P11229); assay type: functional, cell-based
T2 sequence (P11229 whole entry): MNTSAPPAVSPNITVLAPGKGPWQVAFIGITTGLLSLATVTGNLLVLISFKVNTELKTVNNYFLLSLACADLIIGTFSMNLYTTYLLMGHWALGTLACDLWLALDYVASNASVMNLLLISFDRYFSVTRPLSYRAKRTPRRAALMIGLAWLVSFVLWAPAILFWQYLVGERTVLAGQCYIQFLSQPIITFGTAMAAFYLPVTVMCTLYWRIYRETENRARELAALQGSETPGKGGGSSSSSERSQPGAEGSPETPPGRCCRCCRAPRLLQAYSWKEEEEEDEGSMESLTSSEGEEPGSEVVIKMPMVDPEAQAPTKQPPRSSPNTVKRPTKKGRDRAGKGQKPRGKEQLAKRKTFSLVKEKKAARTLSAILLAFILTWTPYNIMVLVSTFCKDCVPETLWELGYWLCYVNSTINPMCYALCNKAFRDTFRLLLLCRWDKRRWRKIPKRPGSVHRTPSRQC

[4] = target: T3, Muscarinic acetylcholine receptor M2 (Homo sapiens, UniProt P08172); assay type: functional, cell-based
T3 sequence (P08172 whole entry): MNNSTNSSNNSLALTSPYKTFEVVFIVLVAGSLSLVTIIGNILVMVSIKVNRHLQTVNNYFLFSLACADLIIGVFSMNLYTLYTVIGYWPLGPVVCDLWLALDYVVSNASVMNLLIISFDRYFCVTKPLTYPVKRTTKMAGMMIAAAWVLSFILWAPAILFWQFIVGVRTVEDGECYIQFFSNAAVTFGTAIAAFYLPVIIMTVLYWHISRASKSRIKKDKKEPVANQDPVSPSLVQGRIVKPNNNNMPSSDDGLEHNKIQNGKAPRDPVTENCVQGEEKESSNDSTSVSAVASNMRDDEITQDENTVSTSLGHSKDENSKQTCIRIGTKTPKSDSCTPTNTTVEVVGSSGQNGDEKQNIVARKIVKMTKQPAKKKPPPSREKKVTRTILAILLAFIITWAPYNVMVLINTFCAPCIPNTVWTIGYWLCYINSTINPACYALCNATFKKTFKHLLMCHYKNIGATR

[5] = target: T4, 5-hydroxytryptamine receptor 1A (Homo sapiens, UniProt P08908)
T4 sequence (P08908 whole entry): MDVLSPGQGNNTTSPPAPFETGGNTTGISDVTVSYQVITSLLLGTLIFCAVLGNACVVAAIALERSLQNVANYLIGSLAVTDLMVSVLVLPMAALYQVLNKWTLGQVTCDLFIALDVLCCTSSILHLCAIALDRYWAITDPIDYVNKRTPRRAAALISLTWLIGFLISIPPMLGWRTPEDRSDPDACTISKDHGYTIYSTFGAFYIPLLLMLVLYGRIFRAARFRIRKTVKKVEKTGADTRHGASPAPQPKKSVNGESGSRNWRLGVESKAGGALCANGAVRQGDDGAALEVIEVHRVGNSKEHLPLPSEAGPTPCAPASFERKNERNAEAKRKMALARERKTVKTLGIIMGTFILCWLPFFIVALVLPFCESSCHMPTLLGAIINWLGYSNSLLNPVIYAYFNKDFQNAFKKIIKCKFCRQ

[6] = target: T2, Muscarinic acetylcholine receptor M1; assay type: functional
Histamine H1 receptor = Histamine H1 receptor (Homo sapiens, UniProt P35367)
Cannabinoid receptor 1 = Cannabinoid receptor 1 (Homo sapiens, UniProt P21554); assay type: functional, cell-based
Further: assay procedure not described here.

Sequence of D(1A) dopamine receptor (P21728 whole entry): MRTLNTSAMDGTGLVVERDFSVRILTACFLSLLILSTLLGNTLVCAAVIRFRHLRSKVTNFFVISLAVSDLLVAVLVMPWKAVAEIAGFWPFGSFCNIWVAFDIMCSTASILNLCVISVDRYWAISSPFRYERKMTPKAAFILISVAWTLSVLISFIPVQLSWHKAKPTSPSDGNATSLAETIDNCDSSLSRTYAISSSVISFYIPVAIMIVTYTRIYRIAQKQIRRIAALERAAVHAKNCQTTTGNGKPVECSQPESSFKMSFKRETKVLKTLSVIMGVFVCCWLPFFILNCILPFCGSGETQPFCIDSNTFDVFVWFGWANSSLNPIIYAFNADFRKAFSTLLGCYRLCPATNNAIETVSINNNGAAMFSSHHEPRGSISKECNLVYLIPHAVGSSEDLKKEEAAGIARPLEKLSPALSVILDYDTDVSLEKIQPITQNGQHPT
Sequence of Gamma-aminobutyric acid receptor subunit alpha-1/alpha-2/beta-2/gamma-2 (P14867 whole entry): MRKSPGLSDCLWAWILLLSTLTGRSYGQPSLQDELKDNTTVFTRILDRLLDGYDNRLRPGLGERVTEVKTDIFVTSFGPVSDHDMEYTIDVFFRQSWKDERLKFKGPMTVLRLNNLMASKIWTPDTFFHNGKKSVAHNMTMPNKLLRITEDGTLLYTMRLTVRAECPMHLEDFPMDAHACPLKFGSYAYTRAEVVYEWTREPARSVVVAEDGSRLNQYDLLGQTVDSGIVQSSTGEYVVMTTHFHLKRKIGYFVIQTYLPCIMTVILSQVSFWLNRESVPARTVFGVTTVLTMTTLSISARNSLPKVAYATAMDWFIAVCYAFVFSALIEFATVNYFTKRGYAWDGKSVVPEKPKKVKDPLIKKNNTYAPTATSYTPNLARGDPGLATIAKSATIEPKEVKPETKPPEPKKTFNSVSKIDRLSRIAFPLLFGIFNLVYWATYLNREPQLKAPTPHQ
Sequence of Gamma-aminobutyric acid receptor subunit alpha-1/alpha-2/beta-2/gamma-2 (P47870 whole entry): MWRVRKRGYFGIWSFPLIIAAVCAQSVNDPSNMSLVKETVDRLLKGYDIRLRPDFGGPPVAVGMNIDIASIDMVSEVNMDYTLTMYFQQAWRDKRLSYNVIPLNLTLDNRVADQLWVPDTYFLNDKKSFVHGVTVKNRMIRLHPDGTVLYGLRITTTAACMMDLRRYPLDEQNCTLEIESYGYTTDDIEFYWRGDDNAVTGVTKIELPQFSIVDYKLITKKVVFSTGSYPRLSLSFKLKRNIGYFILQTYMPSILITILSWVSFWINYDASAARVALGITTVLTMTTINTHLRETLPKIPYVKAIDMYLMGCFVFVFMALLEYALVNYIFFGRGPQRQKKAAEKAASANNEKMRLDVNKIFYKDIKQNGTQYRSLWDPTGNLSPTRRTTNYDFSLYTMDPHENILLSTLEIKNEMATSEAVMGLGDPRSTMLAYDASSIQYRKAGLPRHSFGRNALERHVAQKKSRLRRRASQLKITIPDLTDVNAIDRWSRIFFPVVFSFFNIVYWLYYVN
Sequence of Gamma-aminobutyric acid receptor subunit alpha-1/alpha-2/beta-2/gamma-2 (P18507 whole entry): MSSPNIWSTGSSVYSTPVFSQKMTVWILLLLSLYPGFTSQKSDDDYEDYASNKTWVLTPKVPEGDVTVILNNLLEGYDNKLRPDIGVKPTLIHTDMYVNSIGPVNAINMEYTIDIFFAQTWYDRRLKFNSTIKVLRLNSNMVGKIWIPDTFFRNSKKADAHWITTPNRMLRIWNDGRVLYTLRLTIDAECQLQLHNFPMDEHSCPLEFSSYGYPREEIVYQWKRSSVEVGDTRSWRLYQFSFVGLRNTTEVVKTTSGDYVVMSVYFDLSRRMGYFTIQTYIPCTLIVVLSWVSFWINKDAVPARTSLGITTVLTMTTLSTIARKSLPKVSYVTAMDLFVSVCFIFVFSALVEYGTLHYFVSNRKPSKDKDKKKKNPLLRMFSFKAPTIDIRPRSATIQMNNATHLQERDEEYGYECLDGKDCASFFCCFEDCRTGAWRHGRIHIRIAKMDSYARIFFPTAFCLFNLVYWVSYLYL
Sequence of Gamma-aminobutyric acid receptor subunit alpha-1/alpha-2/beta-2/gamma-2 (P47869 whole entry): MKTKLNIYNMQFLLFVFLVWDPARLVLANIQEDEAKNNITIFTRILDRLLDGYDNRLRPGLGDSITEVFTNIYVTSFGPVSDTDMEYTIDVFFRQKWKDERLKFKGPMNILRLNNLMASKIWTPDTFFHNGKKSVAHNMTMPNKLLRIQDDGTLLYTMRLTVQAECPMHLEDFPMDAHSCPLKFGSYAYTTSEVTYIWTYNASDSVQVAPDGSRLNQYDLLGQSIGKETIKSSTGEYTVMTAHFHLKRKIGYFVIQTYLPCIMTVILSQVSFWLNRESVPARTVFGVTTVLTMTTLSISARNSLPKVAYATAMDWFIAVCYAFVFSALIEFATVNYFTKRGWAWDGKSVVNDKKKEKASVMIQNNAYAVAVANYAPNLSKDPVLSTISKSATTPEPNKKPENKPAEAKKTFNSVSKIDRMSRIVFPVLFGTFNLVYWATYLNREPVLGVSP
Sequence of Histamine H1 receptor (P35367 whole entry): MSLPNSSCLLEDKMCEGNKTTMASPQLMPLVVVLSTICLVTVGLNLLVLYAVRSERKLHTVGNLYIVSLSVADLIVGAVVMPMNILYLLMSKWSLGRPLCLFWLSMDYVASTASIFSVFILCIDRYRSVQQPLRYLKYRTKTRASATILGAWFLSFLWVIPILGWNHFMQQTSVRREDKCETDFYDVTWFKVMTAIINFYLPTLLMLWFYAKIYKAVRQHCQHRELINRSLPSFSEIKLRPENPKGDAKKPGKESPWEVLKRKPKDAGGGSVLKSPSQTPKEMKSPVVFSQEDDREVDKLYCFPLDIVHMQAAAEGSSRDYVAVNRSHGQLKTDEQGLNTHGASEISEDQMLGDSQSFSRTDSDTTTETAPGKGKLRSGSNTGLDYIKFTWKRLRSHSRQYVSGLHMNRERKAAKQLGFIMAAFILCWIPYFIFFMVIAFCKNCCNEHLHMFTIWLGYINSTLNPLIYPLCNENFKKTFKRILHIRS
Sequence of Cannabinoid receptor 1 (P21554 whole entry): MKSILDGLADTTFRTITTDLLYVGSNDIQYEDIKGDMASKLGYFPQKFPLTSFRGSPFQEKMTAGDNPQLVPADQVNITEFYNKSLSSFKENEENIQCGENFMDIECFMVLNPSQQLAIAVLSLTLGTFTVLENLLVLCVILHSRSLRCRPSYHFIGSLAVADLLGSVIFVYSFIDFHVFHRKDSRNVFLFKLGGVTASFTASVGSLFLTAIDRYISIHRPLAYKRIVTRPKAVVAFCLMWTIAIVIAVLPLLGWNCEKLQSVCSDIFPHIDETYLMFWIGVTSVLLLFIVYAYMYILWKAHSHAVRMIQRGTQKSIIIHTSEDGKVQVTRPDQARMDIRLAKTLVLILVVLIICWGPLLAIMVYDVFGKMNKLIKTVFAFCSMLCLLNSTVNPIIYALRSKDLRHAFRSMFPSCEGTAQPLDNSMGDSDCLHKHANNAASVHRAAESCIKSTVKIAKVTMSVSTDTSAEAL

SMILES | AC50 [1] [µM] | AC50 (D(1A) dopamine receptor) [µM] | AC50 [2] [µM] | AC50 (Prothrombin) [µM] | AC50 [3] [µM] | AC50 [4] [µM] | AC50 [5] [µM] | AC50 [6] [µM] | AC50 (Histamine H1 receptor) [µM] | AC50 (Cannabinoid receptor 1) [µM]
c1ccc2c(c1)CCc1ccccc1N2C1CN2CCC1CC2 (stereo unspecified) [QUINUPRAMINE] | > 30 | 2.41 | > 30 | > 30 | > 30 |  |  |  |  | 
CNC1=Nc2ccc(Cl)cc2C(c2ccccc2)=[N+]([O-])C1 [CHLORDIAZEPOXIDE] |  |  |  |  |  | > 10 | > 10 |  |  | 
CCC[C@H](NC(=O)[C@@H]1[C@H]2CCC[C@H]2CN1C(=O)[C@@H](NC(=O)[C@@H](NC(=O)c1cnccn1)C1CCCCC1)C(C)(C)C)C(=O)C(=O)NC1CC1 |  |  |  |  |  |  | > 10 | > 10 | > 10 | 
CC(CCc1ccc(O)cc1)NCCc1ccc(O)c(O)c1 (stereo unspecified) [DOBUTAMINE] |  |  |  |  |  | > 30 | > 10 |  |  | > 30
CC[C@@H]([C@H](C)O)n1ncn(-c2ccc(N3CCN(c4ccc(OC[C@@H]5CO[C@@](Cn6cncn6)(c6ccc(F)cc6F)C5)cc4)CC3)cc2)c1=O [POSACONAZOLE] |  | > 30 | > 30 | > 30 | > 30 |  |  | > 30 | > 30 | 
C[C@H](Cc1cc2c(c(C(N)=O)c1)N(CCCO)CC2)NCCOc1ccccc1OCC(F)(F)F [SILODOSIN] | > 30 | 10.8 | > 30 | > 30 | > 30 |  |  |  |  | 
OC1(c2ccc(Cl)cc2)c2ccccc2C2=NCCN21 (stereo unspecified) [MAZINDOL] |  |  |  |  |  | > 30 | > 10 | > 30 | 7.5 | > 30
CCC(=O)O[C@]1(C(=O)SCF)[C@H](C)C[C@H]2[C@@H]3C[C@H](F)C4=CC(=O)C=C[C@]4(C)[C@@]3(F)[C@@H](O)C[C@@]21C [FLUTICASONE PROPIONATE] |  | > 30 | > 30 | > 30 | > 30 | > 30 | > 10 | > 30 | > 30 | > 30
Cc1ccccc1N1CCN(CCc2nnc3n2CCCC3)CC1 [DAPIPRAZOLE] | > 30 | > 30 |  | > 30 |  |  |  |  |  | 
CN1CCN(C2=Nc3ccccc3Oc3ccc(Cl)cc32)CC1 [LOXAPINE] |  | 0.0245 | > 30 | > 30 | > 30 |  | 33.1 | 0.794 |  | > 30
[H]/N=C(/N)N/C(=N/[H])NCCc1ccccc1 [PHENFORMIN] |  |  |  |  |  | > 10 | > 10 | > 30 | > 30 | 
CC(C)NCC(O)c1ccc(O)c(O)c1 (stereo unspecified) [ISOPROTERENOL] |  |  |  |  |  | > 10 | > 10 |  |  | > 30
Cc1c(N(C)CS(=O)(=O)O)c(=O)n(-c2ccccc2)n1C [METAMIZOLE] | > 30 | > 30 | > 30 | > 30 |  |  |  |  |  | 
CCC(=O)O[C@]1(C(=O)CCl)[C@@H](C)C[C@H]2[C@@H]3C[C@H](F)C4=CC(=O)C=C[C@]4(C)[C@@]3(F)[C@@H](O)C[C@@]21C [HALOBETASOL PROPIONATE] | > 30 | > 30 | > 30 | > 30 | > 30 |  |  |  |  | 
Cc1ncc(COP(=O)(O)O)c(C=O)c1O [PYRIDOXAL PHOSPHATE ANHYDROUS] | > 30 | > 30 | > 30 | > 30 | > 30 |  |  |  |  | 
CC(C)N(CCNC(=O)CN1CCCC1=O)C(C)C | > 30 | > 30 | > 30 | > 30 | > 30 |  |  |  |  | 
CC1=CCC(C(C)(C)O)CC1O (stereo unspecified) [SOBREROL] | > 30 | > 30 | > 30 | > 30 | > 30 |  |  |  |  | 

SMILES | AC50 [1] [µM] | AC50 (D(1A) dopamine receptor) [µM] | AC50 [2] [µM] | AC50 (Prothrombin) [µM] | AC50 [3] [µM] | AC50 [4] [µM] | AC50 [5] [µM] | AC50 [6] [µM] | AC50 (Histamine H1 receptor) [µM] | AC50 (Cannabinoid receptor 1) [µM]
CN1CCC(=C2c3ccccc3CCc3cccnc32)CC1 [AZATADINE] |  |  |  |  |  | 0.08 | 5.69 | 0.11 | 0.0066 | > 30
CCCC(CCC)C(N)=O [VALPROMIDE] |  |  |  |  |  | > 10 | > 10 | > 10 | > 10 | > 30
COc1cc(N2CCC(N3CCN(C)CC3)CC2)ccc1Nc1ncc(Cl)c(Nc2ccccc2P(C)(C)=O)n1 [BRIGATINIB] |  | > 30 | > 30 | > 30 | > 30 |  |  |  |  | 
COC(=O)c1ccc(O)cc1 [METHYLPARABEN] | > 30 | > 30 | > 30 | > 30 |  |  |  |  |  | 
Cc1cc(N)c2ccccc2[n+]1CCCCCCCCCC[n+]1c(C)cc(N)c2ccccc21 |  | 1.04 | 23.9 | 28.8 | > 30 |  |  |  |  | 
CC12CC3CC(C)(C1)CC(N)(C3)C2 [MEMANTINE] |  |  |  |  |  | > 10 | > 10 | > 10 | > 10 | > 30
CC(C)(C)NC[C@H](O)COc1cccc2c1CCCC2=O [LEVOBUNOLOL] | > 30 | > 30 | > 30 | > 30 |  |  |  |  |  | 
CN1C(=O)/C(=N\NC(N)=S)c2ccccc21 [METHISAZONE] |  | > 30 | > 30 | > 30 | 26.4 |  |  |  |  | 
CCCN[C@H]1CCc2nc(N)sc2C1 [PRAMIPEXOLE] |  |  |  |  |  | > 10 | 10.5 | > 10 | > 10 | > 30
COc1cc2c(cc1OC)CC(=O)N(CCCN(C)C[C@H]1Cc3cc(OC)c(OC)cc31)CC2 [IVABRADINE] |  | > 30 | > 30 | > 30 | > 30 |  |  |  |  | 
Cc1cnc(C(=O)NCCc2ccc(S(=O)(=O)NC(=O)NC3CCCCC3)cc2)cn1 [GLIPIZIDE] |  |  | 14 | > 30 |  |  | > 10 |  |  | 
CCCCC(=O)O[C@]1(C(=O)CO)[C@@H](C)C[C@H]2[C@@H]3CCC4=CC(=O)C=C[C@]4(C)[C@@]3(F)[C@@H](O)C[C@@]21C [BETAMETHASONE VALERATE] |  |  |  |  |  | > 10 | > 10 | > 10 | > 10 | > 30
CC(N)C(O)c1ccccc1 (stereo unspecified) [PHENYLPROPANOLAMINE] |  |  |  |  |  | > 10 | > 10 | > 10 | > 10 | > 30
CCN(CC)C(=S)S [DITIOCARB] |  | > 30 | > 30 | > 30 | > 30 |  |  |  |  | 
CCOC(=O)C1=C(C)NC(C)=C(C(=O)OC)C1c1cccc([N+](=O)[O-])c1 (stereo unspecified) [NITRENDIPINE] |  |  |  |  |  | > 10 | > 10 |  |  | > 30
CCOC(=O)[C@H](CCc1ccccc1)N[C@@H](C)C(=O)N(CC(=O)O)C1Cc2ccccc2C1 |  | > 30 | > 30 | > 30 | > 30 |  |  |  |  | 
Cc1cc(NC(=O)C2=C(O)c3ccccc3S(=O)(=O)N2C)no1 [ISOXICAM] |  | > 30 | > 30 | > 30 | > 30 |  |  |  |  | 

From ChEMBL document CHEMBL5291721, “A preclinical secondary pharmacology resource illuminates target-adverse drug reaction associations of marketed drugs” (Nat Commun, 2023)
